{"source": "patent US20050266024A1", "about": "(priority 2002, published 2005)", "key": {"[1]": {"tested_on": "Balb/C mice", "test": "Cellular immune responses after HBsAg DNA vaccine (assay not specified)", "type": "in vivo", "conditions": "as stated in Example 6", "source_text": "This experiment includes a plasmid that expresses HBsAg from the keratin 14 promoter. This was used to try and alter the expression of the antigen in different cell types and see if this affects the immune response. Mice were immunized twice."}, "[2]": {"tested_on": "Balb/C mice", "test": "ELISA for subclass of HBsAg specific antibody (IgG1/IgG2a)", "type": "in vivo", "conditions": "Example 6; serum samples from different experiments; FIG. 15"}, "[3]": {"tested_on": "Balb/C mice", "test": "Resiquimod adjuvant test: cellular immune responses (CD8 ELISPOT) after HBsAg DNA vaccine", "type": "in vivo", "conditions": "Example 16, topical", "procedure": "Resiquimod is delivered topically to the abdominal skin of Balb/c mice on either day −2, −1, 0, 1, 2 or 3 relative to immunization on day 0. Immunization utilizes a DNA vaccine that expresses the Hepatitis B surface antigen so that cellular and antibody responses found after treatment with Resiquimod can be evaluated and compared to a wealth of historical data. The formulation consists of either a 0.05% cream, or a DMSO solution (approximately 5 mg/ml). Ideally both types of formula are tested. One half of the mice are sacrificed 7 days after immunization to measure cellular immune responses (CD8 ELISPOT). The remaining mice are bled 28 days after immunization, boosted with the same schedule as the priming immunization and then sacrificed 2 weeks later to test for antibody and cellular responses. Serum is used to test for antibody titer and to evaluation subclass distribution of IgG antibodies indicating the bias of the immune response.\nFor immunization DNA vaccine plasmids with a well-known immune response are employed. Plasmid WRG7128 is a likely choice which expresses the Hepatitis B surface antigen (HBsAg) using the HCMV promoter/enhancer and generates a cellular and antibody response.\nResiquimod is formulated as either a 0.05% cream, or a 5 mg/ml solution in DMSO. To apply the cream, it is rubbed onto the abdomens of mice using a cotton swab. […]"}, "[4]": {"tested_on": "Balb/C mice", "test": "Serum antibody ELISA (HBsAg) after HBsAg DNA vaccine", "type": "in vivo", "conditions": "Example 2; prime and boost, HBsAg plasmid with HCMV promoter; FIG. 3", "procedure": "(§1) For immunization with the Hepatitis B surface antigen (HBsAg) a plasmid containing the HCMV promoter/enhancer was used to drive expression of the HBsAg. For one experiment we also employed a plasmid in which the keratin 14 promoter was used instead of the HCMV promoter. This promoter is expected to have a more restricted pattern of expression and be expressed only in the skin unlike the HCMV promoter that is expressed in many cell types.\n(§2) The cream is a 5% solution.\nSerum samples were assayed for antibodies using an BLISA assay. Falcon Pro Bind microtiter plates were coated overnight at 4° C. with antigen in PBS (phosphate buffered saline, BioWhittaker). For HBsAg BLISA the antigen was purified HBsAg (BioDesign) at 0.1 ug per well, and for HSV ELISAs the antigen was 5 ug per well of an infected cell extract (Advanced Biotechnolgies Incorporated). […]\nPlates were washed 3× and a biotinylated goat anti-mouse antibody (Southern Biotechnology) diluted 1:8000 in dilution buffer was added to the plate and incubated for 1 hr at RT. […] Optical density was read at 450 nm. Endpoint titers for HBsAg were calculated by comparison of the samples with a standard of known titer."}, "[5]": {"tested_on": "Balb/C mice", "type": "in vivo", "conditions": "Example 7; first experiment, prime only"}, "[6]": {"tested_on": "Balb/C mice", "test": "CD8 IFN-g ELISA of spleen cells after HBsAg DNA vaccine", "type": "in vivo", "conditions": "Example 2; prime and boost", "source_text": "as §1, §2\nMice were immunized with a DNA vaccine containing a HBsAg expressing plasmid using either a high dose (1 ug) or low dose (50 ng) of vaccine. […] One group was also treated for three days (day 0, 1 and 2). […] Results shown in FIG. 1 are from the CD8 IFN-g ELISA. […] The values are the means from 4 individual mice."}, "[7]": {"tested_on": "Balb/C mice", "test": "IFN-g ELISPOT of spleen cells after HBsAg DNA vaccine", "conditions": "Example 2; prime and boost"}, "[8]": {"tested_on": "Balb/C mice", "type": "in vivo", "conditions": "for g-IFN secretion: first experiment", "procedure": "Two further experiments were performed to assess the efficacy of imiquimod (Aldara cream) as an adjuvant for particle-mediated immunization with DNA (PMD). Both experiments used a plasmid expressing HBV sAg and cAg as a test vaccine. […] Readouts included antibody titers and cytokine ELISPOTs to the two antigens.\nGroups of 5-10 Balb/c mice were vaccinated on the shaved abdomen with one shot each on day 0 (prime only) or days 0 and 28 (prime and boost). PMID was administered using an ND5.5 device with a payload of 1 mg Au and a 35 bar cylinder. […] In experiment one, a small, unmnetered amount of Aldara was delivered at the indicated times using a cotton swab to rub the cream in. […] The control cream was an over the counter hand cream which contained many of the same ingredients as the Aldara base cream.\nMice were bled retro-orbitally at 4 weeks for prime/boost groups. Blood was collected by intracardiac puncture, and spleens were removed for cellular assays at sacrifice at either week 2 (prime only) or week 6 (boost+2 weeks). Sera were analyzed for anti-sAg and anti-cAg antibodies using in-house ELISAs. Spleen cells from individual mice were stimulated with protein or peptide for g-IFN and IL-4 ELISPOT assays. Three sets of antigen were used: 1) intact cAg from Biodesign; 2) a library of overlapping sAg peptides (15 mers offset by 3 amino acids synthesized by Chiron); and 3) an immunodominant peptide from sAg (amino acids 28-39) known to bind the MHC class I molecule Ld. Specific spot-forming cells were calculated by subtracting the number of spots generated with cells cultured in medium alone."}, "[9]": {"tested_on": "Balb/C mice", "test": "Anti-sAg and anti-cAg antibody ELISAs after PMID with HBV sAg/cAg plasmid", "type": "in vivo", "conditions": "Example 7"}}, "note": "“Also recorded” adds a separate entry of the source. Read-outs that look alike come from different tables or passages of the source."}
{"smiles": "CCCCC[C@H](O)/C=C/[C@H]1[C@H](O)CC(=O)[C@@H]1C/C=C\\CCCC(=O)O", "note": "[PGE2]", "values": [{"measurement": "cellular responses", "setting": "[1]", "result": "can enhance cellular responses"}, {"measurement": "ratio of IgG1/IgG2a of HBsAg specific antibody", "setting": "[2]", "result": "does not have the same effect overall"}]}
{"smiles": "CCOCc1nc2c(N)nc3ccccc3c2n1CC(C)(C)O", "note": "[Resiquimod, 4-amino-2-ethoxymethyl-alpha,alpha-dimethyl-1H-imidazo [4,5-c]quinoline-1-ethanol]", "values": [{"measurement": "cellular immune response", "setting": "[3]", "result": "boost in the cellular immune response"}, {"measurement": "immune responses to the DNA vaccines", "setting": "[3]; before or after immunization", "result": "enhances immune responses"}]}
{"smiles": "CC(C)Cn1cnc2c(N)nc3ccccc3c21", "note": "[imiquimod, 1-(2-methyl-propyl)-1H-imidazo[4,5-c]quinolin-4-amine]", "values": [{"measurement": "antibody levels", "setting": "[4]", "result": "strong reduction in antibody levels"}, {"measurement": "IL-4 ELISPOTs / IL-4 secretion", "setting": "[5]", "result": "little effect; also recorded: no effect"}, {"measurement": "cellular response (IFN-g ELISA)", "setting": "[6]", "result": "enhanced the responses"}, {"measurement": "cellular response (ELISPOTs)", "setting": "[7]", "result": "enhanced the responses"}, {"measurement": "g-IFN ELISPOT response to class I-restricted peptide (CD8+ cells)", "setting": "[8]; Example 7, first experiment, compared with sAg peptide library response", "result": "comaparable responses were seen"}, {"measurement": "optimal time point for augmenting g-IFN-secreting cells", "setting": "[8]; Example 7, time after PMID", "result": "about a day and upto 7 days after PMID"}, {"measurement": "g-IFN secretion", "setting": "[8]; highest dose of DNA, delivered right before or right after", "result": "slightly inhibitory"}, {"measurement": "g-IFN secretion", "setting": "[8]; highest dose of DNA, given 24 hours after", "result": "augments PMID"}, {"measurement": "g-IFN secretion", "setting": "[8]; low doses of DNA, administration 24 hours post PMID", "result": "most effective"}, {"measurement": "g-IFN secretion", "setting": "[8]; low doses of HBV-encoding DNA, all three time points", "result": "enhances g-IFN secretion"}, {"measurement": "antibody titers / antibody responses to HBV sAg and cAg", "setting": "[9]", "result": "little effect; also recorded: did not enhance antibody responses"}]}
